Laboratory results taken from the Kinase Knowledgebase extract (Sharma et al. 2016).

Each compound was assayed against PIK3CA (human) (UniProt P42336) (assay: Inhibition of PIK3CA Kinase Activity).
Sequence of PIK3CA (human) (P42336 whole entry, looked up): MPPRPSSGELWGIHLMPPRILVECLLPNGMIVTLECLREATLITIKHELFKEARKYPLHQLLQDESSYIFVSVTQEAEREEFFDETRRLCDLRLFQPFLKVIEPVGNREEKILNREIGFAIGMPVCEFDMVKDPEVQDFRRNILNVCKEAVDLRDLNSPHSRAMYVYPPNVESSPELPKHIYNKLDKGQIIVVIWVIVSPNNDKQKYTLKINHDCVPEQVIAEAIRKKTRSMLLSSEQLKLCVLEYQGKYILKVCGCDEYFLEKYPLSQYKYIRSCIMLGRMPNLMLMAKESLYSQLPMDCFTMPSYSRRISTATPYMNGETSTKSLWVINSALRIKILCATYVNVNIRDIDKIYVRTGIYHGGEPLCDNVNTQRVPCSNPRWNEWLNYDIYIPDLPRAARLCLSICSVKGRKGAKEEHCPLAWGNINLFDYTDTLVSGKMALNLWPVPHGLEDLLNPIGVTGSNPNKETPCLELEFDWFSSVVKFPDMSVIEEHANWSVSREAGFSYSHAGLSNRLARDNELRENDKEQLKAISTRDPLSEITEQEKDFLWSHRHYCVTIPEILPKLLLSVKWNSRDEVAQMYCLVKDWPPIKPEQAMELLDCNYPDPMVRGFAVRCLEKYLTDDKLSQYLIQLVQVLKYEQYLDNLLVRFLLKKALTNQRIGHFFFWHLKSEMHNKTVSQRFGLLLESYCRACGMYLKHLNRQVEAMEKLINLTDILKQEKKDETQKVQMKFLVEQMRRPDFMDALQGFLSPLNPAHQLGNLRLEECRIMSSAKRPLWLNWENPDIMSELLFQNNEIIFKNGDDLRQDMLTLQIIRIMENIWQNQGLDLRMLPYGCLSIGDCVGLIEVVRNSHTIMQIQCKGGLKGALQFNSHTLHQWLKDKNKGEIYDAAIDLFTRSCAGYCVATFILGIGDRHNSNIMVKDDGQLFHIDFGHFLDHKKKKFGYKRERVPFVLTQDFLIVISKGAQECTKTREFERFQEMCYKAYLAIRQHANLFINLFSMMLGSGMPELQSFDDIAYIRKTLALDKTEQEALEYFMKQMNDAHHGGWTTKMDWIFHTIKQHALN

| IC50 | SMILES |
| --- | --- |
| 250 to 1000 nM | CN(C)Cc1nc2c(c(N3CCOc4ccc(-c5ccc6scnc6c5)cc4C3)n1)CC(C)(C)CC2 |
| 10 to 50 nM | Cc1ncnc(N2CCOc3ccc(-c4ccc5nc(N)[nH]c5c4)cc3C2)c1Cc1ccc(F)cc1 |
| ≤ 10 nM | Nc1nc2ncc(-c3ccc4c(c3)CN(c3ncnc5ccc(I)cc35)CCO4)cc2[nH]1 |
| 10 to 50 nM | CCNc1nc2ccc(-c3ccc4c(c3)CN(c3ncnc(Nc5ccccc5)c3C)CCO4)cc2[nH]1 |
| 10 to 50 nM | CCNc1nc2ccc(-c3ccc4c(c3)CN(c3ccnc5ccc(F)cc35)CCO4)cc2[nH]1 |
| 50 to 250 nM | CCc1nc2ccc(-c3ccc4c(c3)CN(c3ncnc5c3CC(C)(C)CC5)CCO4)cc2[nH]1 |
| 50 to 250 nM | CC1(C)CCc2ncnc(N3CCOc4ccc(-c5cnc(F)c(NS(C)(=O)=O)c5)cc4C3)c2C1 |
| 50 to 250 nM | CCNc1nc(N2CCOc3ccc(-c4ccc5nc(NCC)[nH]c5c4)cc3C2)c2ccccc2n1 |
| 50 to 250 nM | Cc1cccc(Cl)c1S(=O)(=O)Nc1cc(-c2ccc3c(c2)CN(c2ncnc4c2CC(C)(C)CC4)CCO3)cnc1Cl |
| 50 to 250 nM | Cc1nc2ccc(-c3ccc4c(c3)CN(c3ncnc5cc(S(C)(=O)=O)ccc35)CCO4)cc2[nH]1 |
| 10 to 50 nM | CC[C@H](C)NCc1nc2c(c(N3CCOc4ccc(-c5cnc6nc(C)[nH]c6c5)cc4C3)n1)CC(C)(C)CC2 |
| 50 to 250 nM | Cc1ncnc(N2CCOc3ccc(-c4ccc5nc(N)sc5n4)cc3C2)c1Cc1ccc(F)cc1 |
| 50 to 250 nM | Cc1nc2cc(-c3ccc4c(c3)CN(c3nc(C(C)N5CCCC5)nc5c3CC(C)(C)CC5)CCO4)cnc2[nH]1 (configuration not stated) |
| ≤ 10 nM | CN(C)Cc1nc2c(c(N3CCOc4ccc(-c5cnc(Cl)c(NS(C)(=O)=O)c5)cc4C3)n1)CC(C)(C)CC2 |
| 10 to 50 nM | Cc1c(NC2CCN(C)CC2)ncnc1N1CCOc2ccc(-c3cnc4nc(C5CC5)[nH]c4c3)cc2C1 |
| 50 to 250 nM | COCCOCc1nc2c(c(N3CCOc4ccc(-c5ccc6nc(C)[nH]c6c5)cc4C3)n1)CC(C)(C)CC2 |
| 50 to 250 nM | Cc1nc2ncc(-c3ccc4c(c3)CN(c3ncnc(N5CCC5)c3C)CCO4)cc2[nH]1 |
| 50 to 250 nM | c1ccc2c(N3CCOc4ccc(-c5ccc6nccnc6c5)cc4C3)ccnc2c1 |
| 10 to 50 nM | Cc1nc2ccc(-c3ccc4c(c3)CN(c3ncnc(C)c3Cc3cc(F)cc(Cl)c3)CCO4)cc2[nH]1 |
| ≤ 10 nM | CCc1c(C)nc(CN(C)C)nc1N1CCOc2ccc(-c3cnc4[nH]c(C)nc4c3)cc2C1 |
| 50 to 250 nM | CC1(C)CCc2ncnc(N3CCOc4ccc(-c5cncc(NS(C)(=O)=O)c5)cc4C3)c2C1 |

| IC50 | SMILES |
| --- | --- |
| ≤ 10 nM | Cc1nc2ncc(-c3ccc4c(c3)CN(c3nc(CN(C)C)nc5c3CC(C)(C)CC5)CCO4)cc2[nH]1 |
| 10 to 50 nM | Cc1nc2ccc(-c3ccc4c(c3)CN(c3ncnc5ccccc35)CCO4)cc2[nH]1 |
| 10 to 50 nM | Cc1nc2ncc(-c3ccc4c(c3)CN(c3ncnc5c3CCC(C)C5)CCO4)cc2[nH]1 (configuration not stated) |
| 10 to 50 nM | Cc1nc2c(c(N3CCOc4ccc(-c5cnc6sc(N)nc6c5)cc4C3)n1)CC(C)(C)CC2 |
| 10 to 50 nM | COCCc1c(C)nc(CN(C)C)nc1N1CCOc2ccc(-c3cnc4sc(N)nc4c3)cc2C1 |
| 50 to 250 nM | COc1cc2nccc(N3CCOc4ccc(-c5ccc(-c6ncc[nH]6)cc5)cc4C3)c2cc1OC |
| 250 to 1000 nM | CN(C)Cc1nc2c(c(N3CCOc4ccc(-c5ccc(Cl)c(C(N)=O)c5)cc4C3)n1)CC(C)(C)CC2 |
| ≤ 10 nM | CCNc1nc2ccc(-c3ccc4c(c3)CN(c3ncnc5cc(F)ccc35)CCO4)cc2[nH]1 |
| 250 to 1000 nM | CCNC(=O)c1ccc(-c2ccc3c(c2)CN(c2ccnc4ccccc24)CCO3)cc1 |
| 10 to 50 nM | CC1(C)CCc2ncnc(N3CCOc4ccc(-c5cnc(N)c(S(=O)(=O)N6CC[C@@H](N)C6)c5)cc4C3)c2C1 |
| 10 to 50 nM | CN(C)S(=O)(=O)c1cc(-c2ccc3c(c2)CN(c2ncnc4c2CC(C)(C)CC4)CCO3)cnc1N |
| ≤ 10 nM | CC[C@H]1CCc2c(ncnc2N2CCOc3ccc(-c4cnc5nc(NC(=O)OC)[nH]c5c4)cc3C2)C1 |
| 50 to 250 nM | Cc1nc2ncc(-c3ccc4c(c3)CN(c3nc(CNCC(F)(F)F)nc5c3CC(C)(C)CC5)CCO4)cc2[nH]1 |
| ≤ 10 nM | COCCc1c(C)nc(CN(C)C)nc1N1CCOc2ccc(-c3ccc4nc(C)[nH]c4c3)cc2C1 |
| 50 to 250 nM | COc1ccc2c(N3CCOc4ccc(-c5cnc6[nH]ccc6c5)cc4C3)nc(C)nc2c1 |
| 50 to 250 nM | Cc1nc(CN(C)C)nc(N2CCOc3ccc(-c4cnc5sc(N)nc5c4)cc3C2)c1CC(C)C |
| 10 to 50 nM | c1ccc2c(N3CCOc4ccc(-c5ccc6nc[nH]c6c5)cc4C3)ccnc2c1 |
| 250 to 1000 nM | COc1cncc(-c2ccc3c(c2)CN(c2ncnc4c2CC(C)(C)CC4)CCO3)c1 |
| 10 to 50 nM | Cc1nc2ccc(-c3ccc4c(c3)CN(c3nc(CNC5CCC5)nc5c3CC(C)(C)CC5)CCO4)cc2[nH]1 |
| 10 to 50 nM | Cc1nc(CN(C)C)nc(N2CCOc3ccc(-c4cnc5sc(N)nc5c4)cc3C2)c1Cl |
| 50 to 250 nM | Nc1nc2ccc(-c3ccc4c(c3)CN(c3nc(-c5ccccc5)nc5ccccc35)CCO4)cc2[nH]1 |

| IC50 | SMILES |
| --- | --- |
| 10 to 50 nM | CC1(C)CCc2ncnc(N3CCOc4ccc(-c5cnc(N)c(S(=O)(=O)N[C@@H]6CCNC6)c5)cc4C3)c2C1 |
| ≤ 10 nM | Cc1nc2ccc(-c3ccc4c(c3)CN(c3ncnc(C)c3C(C)c3cccc(F)c3)CCO4)cc2[nH]1 (configuration not stated) |
| 10 to 50 nM | COC(=O)Nc1nc2ccc(-c3ccc4c(c3)CN(c3nc(C)nc5ccccc35)CCO4)cc2[nH]1 |
| 10 to 50 nM | Cc1nc(C)c(C(C)C)c(N2CCOc3ccc(-c4cnc5nc(C)[nH]c5c4)cc3C2)n1 |
| 10 to 50 nM | COc1cc2ncnc(N3CCOc4ccc(-c5ccc6nc(C)[nH]c6c5)cc4C3)c2cc1Cl |
| 10 to 50 nM | CNC1CN(S(=O)(=O)c2cc(-c3ccc4c(c3)CN(c3ncnc5c3CC(C)(C)CC5)CCO4)cnc2N)C1 |
| 10 to 50 nM | CC(C)(N)CCNS(=O)(=O)c1cc(-c2ccc3c(c2)CN(c2ncnc4c2CC(C)(C)CC4)CCO3)cnc1N |
| 10 to 50 nM | CC1(C)CCc2ncnc(N3CCOc4ccc(-c5ccc6[nH]c(C(F)F)nc6c5)cc4C3)c2C1 |
| ≤ 10 nM | COc1ccc2c(N3CCOc4ccc(-c5cnc6sc(N)nc6c5)cc4C3)nc(CN(C)C)nc2c1 |
| 250 to 1000 nM | Cc1nc2ccc(-c3ccc4c(c3)CN(c3ncnc5ccc(OCCCN(C)C)cc35)CCO4)cc2[nH]1 |
| 10 to 50 nM | Cc1ncc(-c2ccc3c(c2)CN(c2ncnc4c2CC(C)(C)CC4)CCO3)cc1NS(C)(=O)=O |
| 50 to 250 nM | Cc1ccc(Cc2c(C)ncnc2N2CCOc3ccc(-c4ccc5nc(C)[nH]c5c4)cc3C2)cc1 |
| 10 to 50 nM | CCNc1nc2ccc(-c3ccc4c(c3)CN(c3ncnc5c3CC(C)(C)CC5)CCO4)cc2[nH]1 |
| ≤ 10 nM | Cc1nc2ncc(-c3ccc4c(c3)CN(c3nc(CNS(C)(=O)=O)nc5c3CC(C)(C)CC5)CCO4)cc2[nH]1 |
| 10 to 50 nM | CC[C@H]1CCc2c(ncnc2N2CCOc3ccc(-c4cnc(N)c(S(=O)(=O)N5C[C@@H]6C[C@H]5CN6)c4)cc3C2)C1 |
| 10 to 50 nM | Cc1nc2ncc(-c3ccc4c(c3)CN(c3nc(CNCCF)nc5c3CC(C)(C)CC5)CCO4)cc2[nH]1 |
| 10 to 50 nM | COc1c(O)ccc2c(N3CCOc4ccc(-c5ccc6nc(C)[nH]c6c5)cc4C3)ncnc12 |
| 50 to 250 nM | Cc1nc2cc(-c3ccc4c(c3)CN(c3nc(CN(C)C)nc5c3CC(C)(C)CC5)CCO4)c(F)cc2[nH]1 |
| 50 to 250 nM | COC(=O)Nc1nc2ccc(-c3ccc4c(c3)CN(c3nccc5ccccc35)CCO4)cc2[nH]1 |
| ≤ 10 nM | Nc1nc2ncc(-c3ccc4c(c3)CN(c3ncnc5cc(Cl)c(Br)cc35)CCO4)cc2[nH]1 |
